The text below walks through data of article PMC6937593, “Anti-metastatic Inhibitors of Lysyl Oxidase (LOX): Design and Structure–Activity Relationships” (Journal of Medicinal Chemistry, 2019).

The structures appear in SMILES notation. Values joined by “and” are separate entries in the source; they are usually repeats but may differ in a detail not shown here. Equal values may be shown once. Where a name gives a salt, the structure may show the parent alone. Read-outs that look alike come from different tables or passages of the source.

One data set concerns the target T1, LOX (Sus scrofa, UniProt P45845).
T1 construct: LOX enzyme was extracted from pig skin by the method of Shackleton and Hulmes; from tissue; host or cells: pig skin
T1 sequence (P45845 1-249): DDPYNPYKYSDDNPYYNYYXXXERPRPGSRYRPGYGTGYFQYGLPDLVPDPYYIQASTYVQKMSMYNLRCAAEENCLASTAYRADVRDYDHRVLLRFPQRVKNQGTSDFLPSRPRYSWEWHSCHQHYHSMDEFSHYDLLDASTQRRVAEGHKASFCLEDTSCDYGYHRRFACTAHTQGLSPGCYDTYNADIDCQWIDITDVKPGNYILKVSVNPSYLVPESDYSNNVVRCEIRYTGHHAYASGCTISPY
Description: LOX enzyme activity assay (HRP-coupled fluorescent, cadaverine substrate).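 On all read-outs here: LOX isolated from porcine skin, nine-point dilution series starting at 100 µM, 20 min preincubation with enzyme, BAPN serving as positive control.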 The settings on record: for fold more potent than HTS hit 2a (LOX IC50): vs 2a. Type of data set: biochemical, pig.

The nature of the next data set: MLM stability assay. The settings on record: percentage of compound remaining after 30 min; 10 μM. It counts as in vitro ADME, mouse.
A further data set is described as follows: In vivo PK in mice. More on the design: species or system mouse. As to conditions: mouse plasma, single oral gavage dose 50 mg/kg.
Setting [1] is: n ≥ 2, n = 2: individual values, n > 2: geometric mean [95% CI], 20 min preincubation, read-out: LOX IC50.

Description for In vivo PK in mice: Female BALB/c or CD1 mice (Charles River Laboratories) at 6 weeks of age were used for the PK analyses. The mice were dosed orally by gavage (50 mg/kg in dimethyl sulfoxide (DMSO)/water 1:19 v/v; n = 21) or intravenously in the tail vein (10 mg/kg in DMSO/Tween20/saline 10:1:89 v/v/v; n = 24). […] Three mice were used per time point per route. They were placed under halothane or isoflurane anesthesia, and blood for plasma preparation was taken by terminal cardiac puncture into heparinized syringes. Plasma samples were snap-frozen in liquid nitrogen and then stored at −80 °C prior to analysis.
Description for LOX: LOX enzyme was extracted from pig skin by the method of Shackleton and Hulmes.[24] LOX catalytic activity was determined using a horseradish peroxidase (HRP)-coupled fluorescent assay previously described,[19] with cadaverine hydrochloride as a substrate, BAPN as positive control, and a preincubation time of 20 min with nine dilutions from a top concentration of 100 μM.
Description for MLM stability assay: Mouse liver microsomes (BALB/c) were purchased from Tebu-bio, and the assay was performed by methods previously described.[19] Inhibitors at 10 μM concentration incubated with the microsomes were assessed at 0, 15, and 30 min. Control samples containing no microsomes and no cofactors were also assessed at 0 and 30 min. Samples were extracted by protein precipitation and centrifugation for 20 min in a refrigerated centrifuge (4 °C) at 3700 rpm. The supernatant was analyzed by LCMS/MS for % metabolized over time.

Turning to `NCc1ccc(S(=O)(=O)N2CCCc3ccccc32)s1` [2h, (5-(3,4-Dihydroquinolin-1(2H)-ylsulfonyl)thiophen-2-yl)methanamine], the IC50 on LOX (setting [1]) was 2.5 µM and 2.7 µM. On the same count and under the same terms, the figure for `CN(C)S(=O)(=O)c1ccc(CN)s1` [2b, 5-(Aminomethyl)-N,N-dimethylthiophene-2-sulfonamide] is 70 µM and 72 µM; for `CNCc1ccc(S(=O)(=O)c2ccccc2)s1` [6a, N-Methyl-1-(5-(phenylsulfonyl)thiophen-2-yl)methanamine Hydrochloride] it is above 100 µM. On the same count and under the same terms, the figure for `NCc1ccc(C(=O)NCc2ccccc2)s1` [4d, 5-(Aminomethyl)-N-benzylthiophene-2-carboxamide] is 20 µM and 25 µM. `CS(=O)(=O)c1ccc(S(=O)(=O)c2ccc(CN)s2)cc1-c1ccccc1` [9k, (5-((6-(Methylsulfonyl)-[1,1′-biphenyl]-3-yl)sulfonyl)thiophen-2-yl)methanamine]: in “MLM stability assay”, the “MLM stability (%)” value came out at 41%. Further, in the data set “In vivo PK in mice”, the “AUC(PO)” value worked out at 1.4 µM·h and the Cmax was found to be 1.6 µM. `CC(C)(C)Oc1cc(S(C)(=O)=O)cc(S(=O)(=O)c2ccc(CN)s2)c1` [9b, (5-((3-(tert-Butoxy)-5-(methylsulfonyl)phenyl)sulfonyl)thiophen-2-yl)methanamine]: the “MLM stability (%)” value in “MLM stability assay” is 67%. In “In vivo PK in mice”, the “AUC(PO)” value was found to be 2.3 µM·h and the Cmax is 6.3 µM. Turning to `Cl.Cl.NCc1ccc(S(=O)(=O)N2CCCNCC2)s1` [2j, (5-(1,4-Diazepan-1-ylsulfonyl)thiophen-2-yl)methanamine Dihydrochloride], the IC50 on LOX (setting [1]) is 9.4 µM and 12.7 µM. Moreover, on LOX, the “fold more potent than HTS hit 2a (LOX IC50)” value is given as around 2 fold. With `NCc1ccc(S(=O)(=O)c2cccc(S(=O)(=O)N3CCCC3)c2)s1` [8d, (5-((3-(Pyrrolidin-1-ylsulfonyl)phenyl)sulfonyl)thiophen-2-yl)methanamine], the “MLM stability (%)” value in “MLM stability assay” is listed as 59%. For the same compound, in “In vivo PK in mice”, the “AUC(PO)” value was 0.22 µM·h and the concentration peaked (Cmax) at 0.83 µM.

Regarding `CS(=O)(=O)N1CCCN(S(=O)(=O)c2ccc(CN)s2)CC1` [2m, (5-(4-(Methylsulfonyl)-1,4-diazepan-1-ylsulfonyl)thiophen-2-yl)methanamine], the IC50 at LOX (setting [1]) is 0.93 µM. Besides, the “MLM stability (%)” value in “MLM stability assay” was 37%.

As to `CCNS(=O)(=O)c1ccc(CN)s1` [2c, 5-(Aminomethyl)-N-ethylthiophene-2-sulfonamide], the IC50 on LOX (setting [1]) was 27 µM and 31 µM. As to `NCc1ccc(S(=O)(=O)N2CCOCC2)s1` [2i, (5-(Morpholinosulfonyl)thiophen-2-yl)methanamine], the IC50 at LOX (setting [1]) was 20 µM and 25 µM.

As to `CN1CCCN(S(=O)(=O)c2ccc(CN)s2)CC1` [2k, (5-(4-Methyl-1,4-diazepan-1-ylsulfonyl)thiophen-2-yl)methanamine], the IC50 on LOX (setting [1]) was determined as 3.1 µM.

Regarding `Cc1cc(CN)sc1S(=O)(=O)N1CCc2ccccc21` [5f, (5-(Indolin-1-ylsulfonyl)-4-methylthiophen-2-yl)methanamine], the IC50 on LOX (setting [1]) was 12 µM and 13 µM. Still for that read-out and setting: the result for `NCc1ccc(Sc2ccccc2)s1` [4b, (5-(Phenylthio)thiophen-2-yl)methanamine Hydrochloride] reads 14 µM and 27 µM. The same measure, in the same setting: the figure for `NCc1ccc(S(=O)(=O)NCc2ccccc2)s1` [4c, 5-(Aminomethyl)-N-benzylthiophene-2-sulfonamide] is 15 µM; for `N=C(N)c1ccc(S(=O)(=O)c2ccccc2)s1` [6d, 5-(Phenylsulfonyl)thiophene-2-carboximidamide Hydrochloride] it is above 100 µM. Turning to `NCc1ccc(S(=O)(=O)N2CCC[C@H]2C(N)=O)s1` [2d, (S)-1-(5-(Aminomethyl)thiophen-2-ylsulfonyl)pyrrolidine-2-carboxamide], the IC50 on LOX (setting [1]) was 11 µM and 13 µM. As to `CC(=O)NCCS(=O)(=O)c1ccc(S(=O)(=O)c2ccc(CN)s2)cc1.Cl` [8j, N-(2-((4-((5-(Aminomethyl)thiophen-2-yl)sulfonyl)phenyl)sulfonyl)ethyl)-acetamide Hydrochloride], in “MLM stability assay”, the “MLM stability (%)” value worked out at 91%. In addition, in the data set “In vivo PK in mice”, the “AUC(PO)” value turned out to be 0.36 µM·h and the concentration peaked (Cmax) at 0.38 µM. In the case of `CC(N)c1ccc(S(=O)(=O)c2ccccc2)s1` (stereo not drawn) [6b, 1-(5-(Phenylsulfonyl)thiophen-2-yl)ethanamine], the IC50 on LOX (setting [1]) was above 100 µM.

`CS(=O)(=O)c1ccc(-c2ccc(CN)s2)cc1` [4e, (5-(4-(Methylsulfonyl)phenyl)thiophen-2-yl)methanamine Hydrochloride]: the IC50 at LOX (setting [1]) was 13 µM. Regarding `Cl.Cl.Cn1cc(-c2cc(S(=O)(=O)c3ccc(CN)s3)ccc2S(C)(=O)=O)cn1` [9j, (5-((3-(1-Methyl-1H-pyrazol-4-yl)-4-(methylsulfonyl)phenyl)sulfonyl)thiophen-2-yl)methanamine Dihydrochloride], in “MLM stability assay”, the “MLM stability (%)” value was determined as 90%. Also, in “In vivo PK in mice”, the “AUC(PO)” value is 2.8 µM·h and the highest level (Cmax) was 9.6 µM. For `NCc1sccc1S(=O)(=O)c1ccc2ccccc2c1` [7a, (3-(Naphthalen-2-ylsulfonyl)thiophen-2-yl)methanamine], the “LOX inhibition (in words)” value on LOX is on record as “no inhibitory activity”. The IC50 at LOX (setting [1]) is above 100 µM. On to `CCNC(=O)N1CCCN(S(=O)(=O)c2ccc(CN)s2)CC1` [2l, 4-(5-(Aminomethyl)thiophen-2-ylsulfonyl)-N-ethyl-1,4-diazepane-1-carboxamide], for which, on LOX (setting [1]), the 50% inhibitory concentration (IC50) came out at 2.1 µM. Regarding `NCc1ccc(S(=O)(=O)c2cccc(S(=O)(=O)N3CCC[C@H]3CO)c2)s1` [8e, (S)-(1-((3-((5-(Aminomethyl)thiophen-2-yl)sulfonyl)phenyl)sulfonyl)pyrrolidin-2-yl)methanol], the “MLM stability (%)” value in the data set “MLM stability assay” came out at 63%. In the data set “In vivo PK in mice”, the “AUC(PO)” value came to 0.46 µM·h and the concentration peaked (Cmax) at 1.5 µM.

For the compound `NCc1ccc(S(=O)(=O)N2CCCC2c2ccccc2)s1` (stereo not drawn) [2f, (5-(2-Phenylpyrrolidin-1-ylsulfonyl)thiophen-2-yl)methanamine], the IC50 at LOX (setting [1]) amounted to 3.8 µM. For `NCc1ccc(S(=O)(=O)c2ccc3ccccc3c2)s1` [3g, (5-(Naphthalen-2-ylsulfonyl)thiophen-2-yl)methanamine], the “MLM stability (%)” value in “MLM stability assay” is 100%. In addition, in “In vivo PK in mice”, the “AUC(PO)” value came out at 4.2 µM·h and the peak level (Cmax) was 15 µM. For `CC(C)(C)c1cc(S(C)(=O)=O)cc(S(=O)(=O)c2ccc(CN)s2)c1` [9a, (5-((3-(tert-Butyl)-5-(methylsulfonyl)phenyl)sulfonyl)thiophen-2-yl)methanamine], the “MLM stability (%)” value in the data set “MLM stability assay” is 68%. For the same compound, in “In vivo PK in mice”, the “AUC(PO)” value is 6.5 µM·h and the concentration peaked (Cmax) at 16 µM. Take `NCc1ccc(S(=O)(=O)N2CCC[C@H]2CO)s1` [2e, (S)-(1-(5-(Aminomethyl)thiophen-2-ylsulfonyl)pyrrolidin-2-yl)methanol]: on LOX (setting [1]), the IC50 is 3.1 µM and 3.3 µM.

For `NC(=O)c1ccc(S(=O)(=O)c2ccccc2)s1` [6e, 5-(Phenylsulfonyl)thiophene-2-carboxamide], on LOX (setting [1]), the IC50 was above 100 µM.

Consider `NCc1ccc(S(=O)(=O)N2CCCCC2)s1` [2a, (5-(Piperidin-1-ylsulfonyl)thiophen-2-yl)methanamine], for which the IC50 on LOX (high-throughput screen hit, read-out: mean IC50 (LOX, HTS hit)) was 19 µM; at LOX (setting [1]), 17 µM and 21 µM.

With `NCc1ccc(S(=O)(=O)N2CCc3ccccc32)s1` [2g, (5-(Indolin-1-ylsulfonyl)thiophen-2-yl)methanamine], the IC50 on LOX (setting [1]) is 1.9 µM. The “fold more potent than HTS hit 2a (LOX IC50)” value at LOX is recorded as around 10 fold. Consider `O=S(=O)(c1ccc2ccccc2c1)c1ccc(/C=N/O)s1` [6f, 5-(Naphthalen-2-ylsulfonyl)thiophene-2-carbaldehyde Oxime], for which the IC50 on LOX (setting [1]) was above 100 µM. As for `N#Cc1ccc(S(=O)(=O)c2ccccc2)s1` [6c, 5-(Phenylsulfonyl)thiophene-2-carbonitrile], on LOX (setting [1]), the IC50 is above 100 µM. On to `Cl.Cl.NCc1ccc(S(=O)(=O)Cc2ccccc2)nc1` [5a, (6-(Benzylsulfonyl)pyridin-3-yl)methanamine Dihydrochloride], for which, on LOX (setting [1]), the IC50 was 25 µM. The “fold weaker than aminomethylenethiophene counterpart 5b (LOX)” value at LOX (vs 5b) was around 10 fold.

Consider `NCc1ccc(C(=O)NCc2ccccc2)o1` [5e, 5-(Aminomethyl)-N-benzylfuran-2-carboxamide], for which the half-inhibitory concentration (IC50) on LOX (setting [1]) is 40 µM and 45 µM. Regarding `NCc1cscc1S(=O)(=O)c1ccc2ccccc2c1` [7b, (4-(Naphthalen-2-ylsulfonyl)thiophen-3-yl)methanamine], the “LOX inhibition (in words)” value on LOX is recorded as “no inhibitory activity”. Also, the IC50 on LOX (setting [1]) is above 100 µM. In the case of `CS(=O)(=O)c1ccc(S(=O)(=O)c2ccc(CN)s2)cc1` [3i, (5-(4-(Methylsulfonyl)phenylsulfonyl)thiophen-2-yl)methanamine], the “MLM stability (%)” value in “MLM stability assay” stood at 67%.

The IC50 is the concentration that inhibits the measured activity by half. The term Cmax denotes the peak of the concentration-time curve.
